Calls of active or inactive are those of the source. The calls are words filed in the database; no cut-off is given here.
Assays:
[1] = Oral bioavailability in Non human primate at 2.1 mg/kg by LC-MS/MS analysis; assay type: ADME, organism-based; conditions: primates, in vivo
[2] = Half life in Non human primate at 0.2 mg/kg, iv by LC-MS/MS analysis; assay type: ADME, organism-based; conditions: primates, in vivo
PBMC [3] = assay: Downregulation of FGD2 expression in human PBMC cells at 100 nM measured after 24 hrs by TMT based quantitative proteomics analysis; assay type: functional, cell-based
[4] = Volume of distribution at steady state in rat at 2 mg/kg, iv by LC-MS/MS analysis; assay type: ADME, organism-based; conditions: in vivo, read-out: Vdss
PBMC [5] = assay: Downregulation of IRAK4 expression in human PBMC cells at 100 nM measured after 24 hrs by TMT based quantitative proteomics analysis; assay type: functional, cell-based
[6] = Oral bioavailability in rat at 10 mg/kg by LC-MS/MS analysis; assay type: ADME, organism-based; conditions: in vivo
[7] = Volume of distribution at steady state in Non human primate at 0.2 mg/kg, iv by LC-MS/MS analysis; assay type: ADME, organism-based; conditions: primates, in vivo, read-out: Vdss
OCI-Ly10 [8] = assay: Downregulation of LPXN expression in human OCI-Ly10 cells at 60 nM measured after 2 to 8 hrs by TMT based quantitative proteomics analysis; assay type: functional, cell-based; conditions: time 2-8 hrs
OCI-Ly10 [9] = assay: Antiproliferative activity against human OCI-Ly10 cells measured after 4 days by CellTiter-Glo Luminescent Cell Viability Assay; assay type: functional, cell-based; conditions: Homo sapiens, OCI-Ly10, 96 h
[10] = Metabolic stability in Non human primate hepatocyte assessed as intrinsic clearance measured per million cells; assay type: ADME, cell-based; conditions: primates, hepatocytes; read-out: CLH
[11] = AUC in dog at 2.1 mg/kg, po by LC-MS/MS analysis; assay type: ADME, organism-based, Canis lupus familiaris; conditions: in vivo
[12] = Metabolic stability in mouse liver microsomes assessed as intrinsic clearance; assay type: ADME, Microsome; conditions: read-out: CLH
[13] = AUC in Non human primate at 2.1 mg/kg, po by LC-MS/MS analysis; assay type: ADME, organism-based; conditions: primates, in vivo
[14] = Volume of distribution at steady state in mouse at 2 mg/kg, iv by LC-MS/MS analysis; assay type: ADME, organism-based; conditions: in vivo, read-out: Vdss
[15] = Metabolic stability in rat hepatocyte assessed as intrinsic clearance measured per million cells; assay type: ADME, cell-based; conditions: hepatocytes, read-out: CLH
Cereblon/Ikaros [16] = target: T1, Cereblon/Ikaros (Homo sapiens, UniProt Q96SW2+Q13422); assay: PROTAC activity at CRBN/Ikaros in human OCI-Ly10 cells assessed as induction of Ikaros degradation measured after 24 hrs by MSD assay; assay type: cell-based
PBMC [17] = assay: Effect on ZFP276 expression in human PBMC cells at 100 nM measured after 24 hrs by TMT based quantitative proteomics analysis; assay type: functional, cell-based
[18] = Oral bioavailability in dog at 2.1 mg/kg by LC-MS/MS analysis; assay type: ADME, organism-based, Canis lupus familiaris; conditions: in vivo
OCI-Ly10 [19] = assay: Effect on GSPT1 expression in human OCI-Ly10 at 60 nM measured after 2 to 8 hrs by TMT based quantitative proteomics analysis; assay type: functional, cell-based; conditions: time 2-8 hrs
[20] = Metabolic stability in human hepatocyte assessed as intrinsic clearance measured per million cells; assay type: ADME, cell-based; conditions: hepatocytes, read-out: CLH
[21] = Oral bioavailability in mouse at 10 mg/kg by LC-MS/MS analysis; assay type: ADME, organism-based; conditions: in vivo
PBMC [22] = assay: Downregulation of LPXN expression in human PBMC cells at 100 nM measured after 24 hrs by TMT based quantitative proteomics analysis; assay type: functional, cell-based
PBMC [23] = assay: Effect on IKZF1 expression in human PBMC cells at 100 nM measured after 24 hrs by TMT based quantitative proteomics analysis; assay type: functional, cell-based
[24] = Half life in mouse at 2 mg/kg, iv by LC-MS/MS analysis; assay type: ADME, organism-based; conditions: in vivo
OCI-Ly10 [25] = assay: Antitumor activity in human patient derived OCI-LY10 cells xenografted in NPG mouse bearing MYD88-mutated DLBCL tumor containing a CD79 co-mutation model assessed as tumor growth regression at 20 mg/kg, po QD dosed measured after 3 to 5 days relative to control; assay type: functional; conditions: time 3-5 day
[26] = Volume of distribution at steady state in dog at 0.2 mg/kg, iv by LC-MS/MS analysis; assay type: ADME, organism-based, Canis lupus familiaris; conditions: in vivo, read-out: Vdss
PBMC [27] = assay: Effect on GSPT1 expression in human PBMC at 100 nM measured after 24 hrs by TMT based quantitative proteomics analysis; assay type: functional, cell-based
OCI-Ly10 [28] = assay: […] of […] expression in human OCI-Ly10 cells at 60 nM measured after 2 to 8 hrs by TMT based quantitative proteomics analysis; assay type: functional, cell-based; conditions: time 2-8 hrs
[29] = Metabolic stability in Non human primate liver microsomes assessed as intrinsic clearance; assay type: ADME, Microsome; conditions: primates, read-out: CLH
PBMC [30] = assay: Effect on WIZ expression in human PBMC cells at 100 nM measured after 24 hrs by TMT based quantitative proteomics analysis; assay type: functional, cell-based
[31] = target: T2, Protein cereblon/Interleukin-1 receptor-associated kinase 4 (Homo sapiens, UniProt Q9NWZ3+Q96SW2); assay: PROTAC activity at CRBN/IRAK4 in human OCI-Ly10 cells assessed as induction of IRAK4 degradation measured after 24 hrs by MSD assay; assay type: cell-based
Target sequence in this assay (Q9NWZ3 whole entry): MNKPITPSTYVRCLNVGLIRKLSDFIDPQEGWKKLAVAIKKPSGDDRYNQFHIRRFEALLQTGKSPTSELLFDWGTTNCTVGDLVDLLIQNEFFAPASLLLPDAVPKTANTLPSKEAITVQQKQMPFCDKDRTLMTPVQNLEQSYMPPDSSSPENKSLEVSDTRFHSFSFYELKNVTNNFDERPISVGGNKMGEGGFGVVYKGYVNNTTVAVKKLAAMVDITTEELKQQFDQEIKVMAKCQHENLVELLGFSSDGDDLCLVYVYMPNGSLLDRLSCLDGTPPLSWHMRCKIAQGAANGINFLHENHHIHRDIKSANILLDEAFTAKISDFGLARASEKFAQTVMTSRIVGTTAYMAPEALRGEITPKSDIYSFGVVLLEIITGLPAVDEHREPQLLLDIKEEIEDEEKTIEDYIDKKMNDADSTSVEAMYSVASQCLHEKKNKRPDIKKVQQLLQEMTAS
Target sequence in this assay (Q96SW2 whole entry): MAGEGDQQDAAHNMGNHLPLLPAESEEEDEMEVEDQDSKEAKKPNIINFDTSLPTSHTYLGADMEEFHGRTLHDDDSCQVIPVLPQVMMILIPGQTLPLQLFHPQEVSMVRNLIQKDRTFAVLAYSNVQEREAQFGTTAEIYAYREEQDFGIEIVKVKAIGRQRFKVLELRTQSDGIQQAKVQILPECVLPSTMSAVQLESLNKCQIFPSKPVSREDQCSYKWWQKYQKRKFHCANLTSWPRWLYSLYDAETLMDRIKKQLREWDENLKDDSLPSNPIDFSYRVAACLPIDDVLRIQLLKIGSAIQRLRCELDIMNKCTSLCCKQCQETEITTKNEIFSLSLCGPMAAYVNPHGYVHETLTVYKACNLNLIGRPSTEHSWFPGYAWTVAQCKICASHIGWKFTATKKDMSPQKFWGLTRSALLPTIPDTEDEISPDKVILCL

[32] = Half life in rat at 2 mg/kg, iv by LC-MS/MS analysis; assay type: ADME, organism-based; conditions: in vivo
[33] = Metabolic stability in dog liver microsomes assessed as intrinsic clearance; assay type: ADME, Canis lupus familiaris, Microsome; conditions: read-out: CLH
Cereblon/Ikaros [34] = target: T1, Cereblon/Ikaros; assay: PROTAC activity at CRBN/Ikaros in human OCI-Ly10 cells assessed as maximum degradation at 41 nM measured within 2 hrs; assay type: cell-based
[35] = Half life in dog at 0.2 mg/kg, iv by LC-MS/MS analysis; assay type: ADME, organism-based, Canis lupus familiaris; conditions: in vivo
OCI-Ly10 [36] = assay: Downregulation of FGD2 expression in human OCI-Ly10 cells at 60 nM measured after 2 to 8 hrs by TMT based quantitative proteomics analysis; assay type: functional, cell-based; conditions: time 2-8 hrs
[37] = Clearance in dog at 0.2 mg/kg, iv by LC-MS/MS analysis; assay type: ADME, organism-based, Canis lupus familiaris; conditions: in vivo
PBMC [38] = assay: Effect on ZFP91 expression in human PBMC cells at 100 nM measured after 24 hrs by TMT based quantitative proteomics analysis; assay type: functional, cell-based
[39] = AUC in mouse at 10 mg/kg, po by LC-MS/MS analysis; assay type: ADME, organism-based; conditions: in vivo
[40] = target: T3, Protein cereblon/Zinc finger protein Aiolos (Homo sapiens, UniProt Q96SW2+Q9UKT9); assay: PROTAC activity at CRBN/Aiolos in human OCI-Ly10 cells assessed as maximum degradation at 41 nM measured within 2 hrs; assay type: cell-based
Target sequence in this assay (Q96SW2 whole entry, looked up): as the sequence (Q96SW2 whole entry) above
Target sequence in this assay (Q9UKT9 whole entry, looked up): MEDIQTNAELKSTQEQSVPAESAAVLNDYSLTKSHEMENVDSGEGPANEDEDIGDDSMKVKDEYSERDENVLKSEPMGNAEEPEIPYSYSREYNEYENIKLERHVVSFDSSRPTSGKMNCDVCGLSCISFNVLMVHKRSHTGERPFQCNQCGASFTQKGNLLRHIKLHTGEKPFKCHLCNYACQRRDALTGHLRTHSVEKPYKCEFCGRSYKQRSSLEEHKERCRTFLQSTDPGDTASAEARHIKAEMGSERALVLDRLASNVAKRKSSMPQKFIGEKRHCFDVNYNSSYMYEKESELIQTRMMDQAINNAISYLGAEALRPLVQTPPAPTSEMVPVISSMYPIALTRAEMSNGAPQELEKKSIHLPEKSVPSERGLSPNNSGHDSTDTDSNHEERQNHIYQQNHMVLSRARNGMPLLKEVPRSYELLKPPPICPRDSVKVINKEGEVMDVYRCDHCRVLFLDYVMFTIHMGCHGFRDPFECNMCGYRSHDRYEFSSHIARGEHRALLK

[41] = Clearance in Non human primate at 0.2 mg/kg, iv by LC-MS/MS analysis; assay type: ADME, organism-based; conditions: primates, in vivo
PBMC [42] = assay: Effect on IKZF3 expression in human PBMC cells at 100 nM measured after 24 hrs by TMT based quantitative proteomics analysis; assay type: functional, cell-based
[43] = Passive permeability of the compound in wild type MDCK cells across apical to basolateral side at 1 uM measured for 120 mins by LC-MS/MS analysis; assay type: ADME, cell-based, Canis lupus familiaris; conditions: dog, read-out: permeability
[44] = target: T3, Protein cereblon/Zinc finger protein Aiolos; assay: PROTAC activity at CRBN/Aiolos in human OCI-Ly10 cells assessed as induction of Aiolos degradation measured after 24 hrs by MSD assay; assay type: cell-based
Target sequence in this assay (Q96SW2 whole entry): as the sequence (Q96SW2 whole entry) above
Target sequence in this assay (Q9UKT9 whole entry): as the sequence (Q9UKT9 whole entry, looked up) above

[45] = Clearance in rat at 2 mg/kg, iv by LC-MS/MS analysis; assay type: ADME, organism-based; conditions: in vivo
[46] = target: T2, Protein cereblon/Interleukin-1 receptor-associated kinase 4; assay: PROTAC activity at CRBN/IRAK4 in human OCI-Ly10 cells assessed as maximum degradation at 41 nM measured after 24 hrs; assay type: cell-based
Target sequence in this assay (Q96SW2 whole entry, looked up): as the sequence (Q96SW2 whole entry) above
Target sequence in this assay (Q9NWZ3 whole entry, looked up): as the sequence (Q9NWZ3 whole entry) above

[47] = Clearance in mouse at 2 mg/kg, iv by LC-MS/MS analysis; assay type: ADME, organism-based; conditions: in vivo
[48] = Metabolic stability in dog hepatocyte assessed as intrinsic clearance measured per million cells; assay type: ADME, cell-based, Canis lupus familiaris; conditions: hepatocytes, read-out: CLH
OCI-Ly10 [49] = assay: Downregulation of […] expression in human OCI-Ly10 cells at 60 nM measured after 2 to 8 hrs by TMT based quantitative proteomics analysis; assay type: functional, cell-based; conditions: time 2-8 hrs
OCI-Ly10 [50] = assay: Antitumor activity against human OCI-LY10 cells xenografted in CB-17.SCID mouse model assessed as tumor growth regression at 3 mg/kg, po QD dosed measured after 38 days; assay type: functional, organism-based; conditions: time 38.0 day
OCI-Ly10 [51] = assay: […] of IKZF3 expression in human OCI-Ly10 cells at 60 nM measured after 2 to 8 hrs by TMT based quantitative proteomics analysis; assay type: functional, cell-based; conditions: time 2-8 hrs
OCI-Ly10 [52] = assay: Antitumor activity against human OCI-LY10 cells xenografted in CB-17.SCID mouse model assessed as tumor growth regression at 10 to 30 mg/kg, po QD dosed measured after 38 days relative to control; assay type: functional; conditions: dose 10-30 mg/kg, time 38 day
[53] = AUC in rat at 10 mg/kg, po by LC-MS/MS analysis; assay type: ADME, organism-based; conditions: in vivo, read-out: AUC

T1 sequence (Q96SW2 whole entry): as the sequence (Q96SW2 whole entry) above
T1 sequence (Q13422 whole entry): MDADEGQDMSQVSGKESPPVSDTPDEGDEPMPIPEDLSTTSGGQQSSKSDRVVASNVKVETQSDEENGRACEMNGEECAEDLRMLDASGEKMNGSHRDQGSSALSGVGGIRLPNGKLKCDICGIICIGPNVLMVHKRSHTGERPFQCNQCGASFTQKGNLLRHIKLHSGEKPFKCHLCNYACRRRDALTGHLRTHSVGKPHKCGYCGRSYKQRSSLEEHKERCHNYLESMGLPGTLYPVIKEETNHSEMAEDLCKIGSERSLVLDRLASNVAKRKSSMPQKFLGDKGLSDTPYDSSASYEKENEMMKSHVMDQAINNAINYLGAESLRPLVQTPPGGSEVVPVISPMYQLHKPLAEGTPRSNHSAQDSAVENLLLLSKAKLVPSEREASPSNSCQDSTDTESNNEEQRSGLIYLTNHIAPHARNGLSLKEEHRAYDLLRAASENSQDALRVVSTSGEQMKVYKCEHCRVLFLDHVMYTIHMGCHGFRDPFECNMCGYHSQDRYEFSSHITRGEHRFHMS

For CC(C)(O)c1cc2nc([C@H]3CC[C@H](CN4CC5(CC(CCNc6cccc7c6C(=O)N(C6CCC(=O)NC6=O)C7=O)C5)C4)CC3)sc2cc1NC(=O)c1cccc(C(F)(F)F)n1 (stereo partly drawn) [ZOMIRADOMIDE], the bioavailability [1] was 42%, the half-life [2] was 16.4 h and the Activity (PBMC [3]) was “Active”. The Vd [4] was 15 L/kg, the Activity (PBMC [5]) was “Active” and the bioavailability [6] was 15%. For the same compound, the Vd [7] was 5.8 L/kg, the Activity (OCI-Ly10 [8]) was “Active” and the IC50 (OCI-Ly10 [9]) was 11 nM. For the same compound, the hepatocyte CLint [10] was 2.7 µL/min/1e6 cells, the AUC [11] was 0.46 µM·h and the microsomal CLint [12] was 4 µL/min/mg. For the same compound, the AUC [13] was 3.6 µM·h, the Vd [14] was 7.5 L/kg and the hepatocyte CLint [15] was 0.8 µL/min/1e6 cells. The DC50 (Cereblon/Ikaros [16]) was 1 nM, the Activity (PBMC [17]) was “Active” and the bioavailability [18] was 21%. The Activity (OCI-Ly10 [19]) was “inactive”, the hepatocyte CLint [20] was 3.5 µL/min/1e6 cells and the bioavailability [21] was 19%. The Activity (PBMC [22]) was “Active”, the Activity (PBMC [23]) was “Active” and the half-life [24] was 8.6 h. For the same compound, the Activity (OCI-Ly10 [25]) was 100%, the Vd [26] was 29 L/kg and the Activity (PBMC [27]) was “inactive”. The Activity (OCI-Ly10 [28]) was “Active”, the microsomal CLint [29] was 8.6 µL/min/mg and the Activity (PBMC [30]) was “Active”. The DC50 [31] was 6 nM, the half-life [32] was 17 h and the microsomal CLint [33] was 4.2 µL/min/mg. The Activity (Cereblon/Ikaros [34]) was “Active”, the half-life [35] was 28 h and the Activity (OCI-Ly10 [36]) was “Active”. The clearance [37] was 14 mL/min/kg, the Activity (PBMC [38]) was “Active” and the AUC [39] was 2.8 µM·h. The Activity [40] was “Active”, the clearance [41] was 4.5 mL/min/kg and the Activity (PBMC [42]) was “Active”. For the same compound, the Papp A→B at 2 h, 1 µM [43] was 1.3 ×10⁻⁶ cm/s, the DC50 [44] was 1 nM and the clearance [45] was 9.1 mL/min/kg. The Activity [46] was “Active”, the clearance [47] was 11 mL/min/kg and the hepatocyte CLint [48] was 2.3 µL/min/1e6 cells. For the same compound, the Activity (OCI-Ly10 [49]) was “Active”, the Activity (OCI-Ly10 [50]) was “Active” and the Activity (OCI-Ly10 [51]) was “Active”. The Activity (OCI-Ly10 [52]) was 100% and the AUC [53] was 2.7 µM·h.

— ChEMBL document CHEMBL5523727, “Discovery of KT-413, a Targeted Protein Degrader of IRAK4 and IMiD Substrates Targeting MYD88 Mutant Diffuse Large B-Cell Lymphoma” (J Med Chem, 2024)
